What was measured:
Pseudomonas fluorescens = details: imidacloprid as cotton seed treatment; cited from earlier work
[1] = system: Bacillus sphaericus AP 282; test: Bacterial strains and insecticide compatibility (mixed in tubes, CFU counts); format: cell-based; details: Example 1; mixed for 2 wk at label rates
Description: (§1) The strains of Blend 20, each with a minimum concentration of 1×10^8 CFU per ml were individually evaluated for their compatibility with commonly used liquid insecticides. The strains were evaluated individually to make recovery of each bacterium apparent, as the colony morphologies are similar. Freshly prepared bacteria stock solutions were evaluated for their ability to survive being ‘tank’ mixed with insecticides in 50 ml centrifuge tubes with three different insecticides mixed together for 1 h, 24 h, and 1 wk, and 2 wk at 25 s ° C. under ambient light. The bacteria were evaluated for compatibility with insecticides which included three chemical groups: neonicotinoids, phenylpyrazoles, and pyrethroids. The pesticides evaluated were bifenthrin (Talstar Pro, FMC Corporation, Philadelphia, Pa.), fipronil (Termidor SC, BASF Corporation, Florham Park, N.J.), imidacloprid (Merit 2F, Bayer, Research Triangle Park, N.C.). While Termidor SC is not used on golf courses, it was selected for convenience because the active ingredient (Fipronil) is formulated as a granular product and widely used for mole cricket management (24). Bacteria and pesticide solutions were prepared based on the label recommendations for volume of area covered (bifenthrin, imidacloprid) or amount of active ingredient per volume needed (fipronil). Bifenthrin and fipronil were evaluated at high and low label rates. Bifenthrin was mixed at a rate of 29.6 and 14.8 ml per 92.9 m^2 (7.9% active ingredient, 302 g per 3,785 ml). Imidacloprid was mixed a rate of 17 ml per 92.9 m^2 (21.4%, 907 g per 3,785 ml). Fipronil was prepared at 47.3 (0.125% dilution) and 23.65 ml (0.06% dilution) per 3,785 ml (9.1% active ingredient, 363 g per 3,785 ml). After the allotted time, the centrifuge tubes were vigorously shaken to evenly distribute bacterial cells before serial 10-fold dilutions. Serial dilutions were made of each bacterial suspension into sterile water blanks to a final dilution of 10^−5. Bacterial populations (number of colony forming units [CFU]) in the suspensions were determined by plating 50 μl of the 10^−5 serial dilutions onto three TSA plates, incubating plates for 24 h and then counting the number of bacterial colonies on each plate.
(§2) The strains that comprise Blend 20, each with aminimum concentration of 1×10^8 CFU per ml, were individually evaluated for their compatibility with commonly used liquid neonicotinoid insecticides. The strains within the blend were evaluated individually to make recovery of each bacterium apparent, as the colony morphologies are similar. Freshly prepared bacteria stock solutions were evaluated for survival when mixed with three different insecticides mixed in separate 50 mL centrifuge tubes for 1 and 24 h, and 1 and 2 wk at 25° C. under ambient light. Bacteria and pesticide solutions were prepared based on the label recommendations for volume of area covered. The pesticides evaluated were imidacloprid (Ferti-lome® Tree and Shrub Systemic Insect Drench, 1.47% active ingredient, Voluntary Purchasing Groups, Inc., Bonham, Tex., USA), imidacloprid (Merit® 2F, 21.4% active ingredient, Bayer Environmental Sciences, Research Triangle Park, N.C., USA), and imidacloprid and clothianidin (Bayer Advanced 12 Month Tree and Shrub Protect and Feed II®, 0.74% imidacloprid and 0.37% clothianidin active ingredient, Bayer Environmental Sciences). The Ferti-lome® product was mixed at a rate of 89 mL of product per 3785 mL. Merit® 2F was mixed at a rate of 17 mL of product per 92.9 m^2. Bayer Advanced Tree and Shrub Protect and Feed II® was mixed at a rate of 89 mL of product per 3785 mL.
(§3) After the allotted time, the centrifuge tubes were vigorously shaken to evenly distribute bacterial cells before completing five serial 10-fold dilutions. Serial dilutions were made of each bacterial suspension into sterile water blanks to a final dilution of 10^−5. […]

Bacillus pumilus AP 18 = test: as above; format: cell-based; details: Example 1; mixed for 2 wk at label rates
Description: as §1, §2, §3

Bacillus pumilus AP 7 = test: as above; format: cell-based; details: Example 1; mixed for 2 wk at label rates
Description: The strains of Blend 20, each with a minimum concentration of 1×10^8 CFU per ml were individually evaluated for their compatibility with commonly used liquid insecticides. The strains were evaluated individually to make recovery of each bacterium apparent, as the colony morphologies are similar. Freshly prepared bacteria stock solutions were evaluated for their ability to survive being ‘tank’ mixed with insecticides in 50 ml centrifuge tubes with three different insecticides mixed together for 1 h, 24 h, and 1 wk, and 2 wk at 25 s ° C. under ambient light. The bacteria were evaluated for compatibility with insecticides which included three chemical groups: neonicotinoids, phenylpyrazoles, and pyrethroids. The pesticides evaluated were bifenthrin (Talstar Pro, FMC Corporation, Philadelphia, Pa.), fipronil (Termidor SC, BASF Corporation, Florham Park, N.J.), imidacloprid (Merit 2F, Bayer, Research Triangle Park, N.C.). […] Bifenthrin and fipronil were evaluated at high and low label rates. […] Bacterial populations (number of colony forming units [CFU]) in the suspensions were determined by plating 50 μl of the 10^−5 serial dilutions onto three TSA plates, incubating plates for 24 h and then counting the number of bacterial colonies on each plate.
Bacterial strains from multiple genera with known populations (minimum of 1×10^8 colony forming units (CFU)/ml (0.03 oz)) were evaluated individually for their compatibility with commonly turfgrass insecticides. […]
The strains that comprise Blend 20, each with aminimum concentration of 1×10^8 CFU per ml, were individually evaluated for their compatibility with commonly used liquid neonicotinoid insecticides. The strains within the blend were evaluated individually to make recovery of each bacterium apparent, as the colony morphologies are similar. Freshly prepared bacteria stock solutions were evaluated for survival when mixed with three different insecticides mixed in separate 50 mL centrifuge tubes for 1 and 24 h, and 1 and 2 wk at 25° C. under ambient light. […]

tawny mole crickets = test: Field plots: tawny mole cricket damage ratings (Cobb and Mack); format: in vivo, Neoscapteriscus vicinus Scudder; details: scale 0-9
Description: On 26 Mar. 2017 field plots were established at the Auburn University Turfgrass Research Unit, Auburn, Ala. over hybrid and common bermudagrass tawny mole cricket infested areas in a Marvyn loamy sand. Plots were 3 m×2 m with at least 2 m separating plots. Field plots were assessed for mole cricket damage based on the rating system of Cobb and Mack (26). A 1 m×1 m frame divided into a grid with 9 subsections was used to score the plots on a scale of 0-9, where 0 indicates no damage and 9 indicates activity in each section. After the initial assessment, plots were assigned to a treatment group based on damage ratings. […] Damage assessments were taken from seven locations (center, top left, top right, bottom left, bottom right, middle left, and middle right), with one location sampled during each damage assessment period for all treatments. The experiment evaluated four treatments, PGPR-treated (Blend 20), bifenthrin-treated, PGPR+bifenthrin-treated, and non-treated control. On 27 Mar. 2017 (Day 0) and 23 April (Day 27) plots were treated with a backpack sprayer. Bacteria-treated plots received 3 L (500 ml/m^2) freshly-prepared aqueous bacterial suspension of 1×10^7 CFU per ml. Bifenthrin-treated plots were treated at a rate of 29.6 ml per 92.9 m^2. The sprayer applied 244 ml of this mixture per plot. PGPR+ bifenthrin plots were treated with the 3 L of bacteria and 244 ml of bifenthrin mixed together in the same tank. The non-treated plots were treated with 3 L of distilled water coincident with treatment of the other plots. After treating, the plots were hand watered with 76.2 L of water (1.27 cm) to move the treatments into the root zone. The experiment was replicated six times for each treatment.
Top growth (fresh and dry mass) in the cylinder trials were analyzed separately using repeated measures of multivariate analysis of covariance (MANCOVA) due to trial being a significant factor (P<0.05, JMP Version 13. SAS Institute Inc., Cary, N.C., 1989-2007). Root fresh and dry mass, and length were analyzed using orthogonal contrasts (P<0.05, JMP Version 13. SAS Institute Inc., Cary, N.C., 1989-2007). The number of mole crickets recovered and mole cricket weights from each treatment were used as covariants. Mole cricket weights were analyzed using analysis of variance (ANOVA), Student's t-test. The number of mole crickets recovered and mole cricket weights within treatments were not significant in either PVC arena trial. For the field trial, LSMeans, Student's t-Test (LSD, P<0.05) was used to compare each sampling period's mole cricket damage ratings.

COC(=O)Nc1nc2ccccc2[nH]1 [carbendazim]
Pseudomonas fluorescens populations when mixed with pesticide or extract (Pseudomonas fluorescens): not negatively impacted

CN(C)C(=S)SSC(=S)N(C)C [thiram]
Pseudomonas fluorescens populations when mixed with pesticide or extract (Pseudomonas fluorescens): not negatively impacted

O=C1C2CC=CCC2C(=O)N1SC(Cl)(Cl)Cl (stereo not shown) [captan]
Pseudomonas fluorescens populations when mixed with pesticide or extract (Pseudomonas fluorescens): negatively impacted

CNC(=O)Oc1cccc2c1OC(C)(C)C2 [carbofuran]
Pseudomonas fluorescens populations when mixed with pesticide or extract (Pseudomonas fluorescens): remained stable

N#Cc1nn(-c2c(Cl)cc(C(F)(F)F)cc2Cl)c(N)c1[S+]([O-])C(F)(F)F (stereo not shown) [Fipronil, fipronil]
bacterial populations when mixed with insecticide [1]: not negatively impacted | bacterial populations when mixed with insecticide (Bacillus pumilus AP 18): not negatively impacted | bacterial populations when mixed with insecticide (Bacillus pumilus AP 7): not negatively impacted

CCCC1COC(Cn2cncn2)(c2ccc(Cl)cc2Cl)O1 (stereo not shown) [propiconazole]
Pseudomonas fluorescens populations when mixed with pesticide or extract (Pseudomonas fluorescens): negatively impacted

CC[C@H](C)[C@H]1O[C@]2(C=C[C@@H]1C)C[C@@H]1C[C@@H](C/C=C(\C)[C@@H](O[C@H]3C[C@H](OC)[C@@H](O[C@H]4C[C@H](OC)[C@@H](O)[C@H](C)O4)[C@H](C)O3)[C@@H](C)/C=C/C=C3\CO[C@@H]4[C@H](O)C(C)=C[C@@H](C(=O)O1)[C@]34O)O2 [avermectin]
Pseudomonas fluorescens populations when mixed with pesticide or extract (Pseudomonas fluorescens): remained stable

Cc1c(COC(=O)[C@@H]2[C@H](/C=C(\Cl)C(F)(F)F)C2(C)C)cccc1-c1ccccc1 (racemic) [Bifenthrin, bifenthrin]
Mean Mole Cricket Damage Rating (tawny mole crickets; 0 days after treatment): 7.52a | Mean Mole Cricket Damage Rating (tawny mole crickets; 14 days after treatment): 7.95a | Mean Mole Cricket Damage Rating (tawny mole crickets; 21 days after treatment): 7.14a | Mean Mole Cricket Damage Rating (tawny mole crickets; 28 days after treatment (1 after re-treatment)): 1.71b | Mean Mole Cricket Damage Rating (tawny mole crickets; 33 days after treatment (5 after re-treatment)): 5.10ab | Mean Mole Cricket Damage Rating (tawny mole crickets; 42 days after treatment (15 after re-treatment)): 3.90ab | Mean Mole Cricket Damage Rating (tawny mole crickets; 46 days after treatment (19 after re-treatment)): 1.48b | Mean Mole Cricket Damage Rating (tawny mole crickets; 50 days after treatment (23 after re-treatment)): 1.86b | Mean Mole Cricket Damage Rating (tawny mole crickets; 56 days after treatment (29 after re-treatment)): 4.43b | bacterial populations when mixed with insecticide [1]: not negatively impacted | bacterial populations when mixed with insecticide (Bacillus pumilus AP 18): not negatively impacted | bacterial populations when mixed with insecticide (Bacillus pumilus AP 7): not negatively impacted

COC(=O)N(C(=O)N1CO[C@@]2(C(=O)OC)Cc3cc(Cl)ccc3C2=N1)c1ccc(OC(F)(F)F)cc1 [indoxacarb]
Pseudomonas fluorescens populations when mixed with pesticide or extract (Pseudomonas fluorescens): not

O=[N+]([O-])NC1=NCCN1Cc1ccc(Cl)nc1 [Imidacloprid, imidacloprid]
bacterial populations when mixed with insecticide [1]: not negatively impacted | bacterial populations when mixed with insecticide (Bacillus pumilus AP 18): not negatively impacted | bacterial populations when mixed with insecticide (Bacillus pumilus AP 7): not negatively impacted | Pseudomonas fluorescens populations when mixed with pesticide or extract (Pseudomonas fluorescens): negatively impacted

CCOP(=S)(OCC)Oc1nc(Cl)c(Cl)cc1Cl [chlorpyriphos]
Pseudomonas fluorescens populations when mixed with pesticide or extract (Pseudomonas fluorescens): remained stable

mancozeb
Pseudomonas fluorescens populations when mixed with pesticide or extract (Pseudomonas fluorescens): negatively impacted

Reference: patent US20200187507A1, “INOCULANTS INCLUDING PLANT GROWTH PRODUCING RHIZOBACTERIA (PGPR) AND INSECTIDES FOR PROMOTING PLANT GROWTH AND HEALTH” (Auburn University, priority 2018, published 2020)
